Reference: patent US7579491B2, “Process for preparing brevifoliol” (Council of Scientific and Industrial Research, priority 2002, dated 2009)

System: different cancer cell lines
Assay: in vitro testing for anticancer activity
Type: cell-based
Description: The isolation of brevifoliol from leaves of the plant Taxus wallichiana is also reported in S. K. Chattopadhyay et al Indian J. Chemistry 35B, 175-177(1996) as part of studies on the isolation of anticancer compounds. The process of this disclosure involved extracting the dried and crushed needles of Taxus wallichiana with methanol for 72 hours and the extract was concentrated in vacuo. The concentrate was diluted with water and extracted with hexane and chloroform respectively. Concentration of the chloroform phase under vacuum left a residue which was separated by column chromatography over silica gel. Fraction eluted with chloroform-methanol (98:5) contained brevifoliol which was further purified by re-chromatography over silica gel and eluted with chloroform-methanol (99:2). Fractions containing brevifoliol were combined and concentrated and recrystallized from pet-ether and ethyl acetate mixture to get brevifoliol as needles. […] The detection of anticancer activity in brevifoliol prompted the present investigators to develop an efficient processing technology for isolation of the compound in large quantities from the needles of the plant for further biological testing.

C=C1C2C[C@]3(C(C)(C)O)CC(O)C(C)=C3[C@@H](OC(=O)c3ccccc3)[C@H](OC(C)=O)[C@]2(C)[C@@H](OC(C)=O)C[C@@H]1O (stereo partly shown) [brevifoliol]
anticancer activity: significant anticancer activity
